Here are results for 3 compounds from patent US20220193047A1, “METHODS OF ENHANCING RADIOTHERAPY USING FERROPTOSIS INDUCERS AS RADIOSENSITIZERS” (THE TRUSTEES OF COLUMBIA UNIVERSITY IN THE CITY OF NEW YORK, priority 2019, published 2022).

“Also recorded” adds a separate entry of the source.

Holding throughout (assay type): cell-based
The subject of experiment [1] is lipid peroxidation in HT-1080 cells. The experiment can be described thus: Lipid ROS assay by flow cytometry (C11-BODIPY). The conditions noted are these: HT-1080, 24 h, 6 Gy radiation with 1 μM IKE or 50 nM RSL3; ferrostatin-1 co-treatment. As for the experimental part: 0.5 million cells were seeded in 10 cm dishes. The next day, they were co-treated with ferroptosis-modulating compounds and radiation and returned to the incubator. On the following day, cells were harvested in 15 ml tubes and washed twice with PBS followed by re-suspending in 500 μl of PBS containing 10 μM of BODIPY-C11 dye (Thermo Fisher Scientific, cat #D3861), and incubated at 37° C. for 30 minutes. The cells were then collected at 300× g for 5 minutes, washed with PBS three times, and subjected to the flow cytometry analysis. C6 flow cytometry system (BD Accuri cytometers) was used for the flow cytometer analysis. A minimum of 10,000 cells were analyzed per condition.
To confirm that radiation causes lipid peroxidation in these cells, lipid peroxidation was also measured with C-11 BODIPY (581/591), a membrane-targeted lipid sensor dye. […] The resulting enhancement was reversed in both cases by also co-treating the cells with ferrostatin-1.
In general terms: In flow cytometry, cells or beads pass a laser one at a time.

In experiment [2] the test system is γH2AX foci in HT-1080 cells. Nature of the experiment: γH2AX immunofluorescence staining. Conditions: for Number of γH2AX foci: HT-1080, 30 minutes, 0 or 6 Gy, 10 μM IKE, 1 μM RSL3, 10 μM ferrostatin-1; for γH2AX foci formation, compound alone: HT-1080, 6 h, no radiation; for γH2AX foci in irradiated groups vs DMSO: HT-1080, 6 h post-treatment, 6 Gy. As for the experimental part: 10,000 cells were seeded on cover slips placed inside wells of 6-well plates. The next day, cells were treated with ferroptosis modulators and/or radiation, then returned to the incubator for 30 minutes or 6 hours. After the growth medium was removed, the cells were washed with PBS and fixed with 100 μl 4% paraformaldehyde per well for 10 minutes at room temperature. After three washes with PBS, cells were permeabilized with 100 μl Triton X-100 (0.1% v/v) per well for 10 minutes incubation at room temperature. Non-specific protein binding was blocked with 100 μl of BSA (1% v/v) per well for 20 minutes at room temperature. After removing excess BSA, 100 μl of primary mouse monoclonal anti-phospho histone-H2AX antibody (1:500) was added to each well for a 1-hour incubation at room temperature. Cells were washed with PBS and incubated with 100 μl of secondary antibody per well for 45 minutes at room temperature in the dark. Cells were washed with PBS and mounted on slides with one drop of Prolong anti-fade reagent with DAPI (Invitrogen) per coverslip. Slides were stored at 4° C. in the dark before analysis on a Zeiss LSM 700 confocal microscope with constant laser intensity for all analyzed samples.
Mechanisms of the cellular lethality from radiation are thought to be mainly derived from the downstream caspase-dependent apoptosis induced by DNA damage, including complex double-strand DNA breaks (Lomax et al., 2013; Morgan and Lawrence, 2015). Therefore, it was desired to determine if ferroptosis inducers and radiation induce DNA damage or affect DNA repair. The extent of these effects of radiation was evaluated by measuring DNA damage and caspase activation in HT-1080 cells co-treated with radiation and ferroptosis inducers. […] The cells were either treated with radiation (6 Gy) or not irradiated (0 Gy) as a control.

A further experiment concerns U87 cells. The experiment can be described thus: Clonogenic assay with radiation, U87. As to the method:
(§1) 500 cells were seeded per well in 6-well plates in their respective growth media and incubated overnight. The next day, cells were co-treated with DMSO or compounds and radiation using a Gammacell 40 Caesium-137 irradiator (Theratronics). Plates were monitored every day using a light microscope for formation of colonies in the DMSO-treated wells. When colonies of >50 cells are clearly visible, the growth medium was discarded from all plates. The cells were washed with PBS, then fixed and stained with crystal violet solution (0.05% crystal violet, 1% formaldehyde, 1% methanol in PBS). Colonies were then directly visualized and counted.
The coefficient of drug interaction (CDI), used to compute interaction between two drugs, was used to quantify synergy between cell death inducers and radiation according to the formula CDI=AB/(A×B), where AB is the surviving fraction of the combination treatment, and A and B are the surviving fractions of the individual treatments. […]
It was then tested whether cell death enhancement of radiation with ferroptosis inducers occurred across diverse tumor cell types. […] In addition to the initial ferroptosis-sensitive HT-1080 sarcoma cell line, glioma and lung cancer cells were evaluated, due to the clinical relevance of radiation therapy for the treatment of these tumor types. […]

Experiment [3] relates to percent tail DNA in HT-1080 cells. Nature of the experiment: Comet assay. The conditions noted are these: for DNA single strand damage (percent tail DNA), compound alone: HT-1080, 10 μM IKE or 1 μM RSL3, 30 minutes or 4 hours; for DNA damage (percent tail DNA), combined with radiation: HT-1080, 6 Gy, 30 minutes or 4 hours. As to the method:
100,000 HT-1080 cells were seeded per well in 6-well plates and incubated overnight. On the next day, the cells were treated with ferroptosis modulators and/or radiation, then returned to the incubator for 30 minutes or 4 hours before being harvested with trypsin and counted. The comet assay was performed using the CometAssay kit (Trevigen) following the alkaline comet assay product instructions. All images were captured on a Zeiss LSM 700 confocal microscope with constant laser intensity for all analyzed samples. The fluorescent signal of each comet was analyzed using NIH ImageJ software.
To test for other forms of DNA damage that cannot be detected by the γH2AX assay, a comet assay, which detects single strand DNA damage in addition to double strand breaks, was performed in HT-1080 cells treated under the same conditions.

The test system of the next experiment is HT-1080 cells. The experiment can be described thus: Clonogenic assay with Cs-137 gamma radiation, HT-1080. Conditions: for Highest observed coefficient of Drug Interaction (CDI) in combination with IR: HT-1080; for Enhancement of radiation effect on clonogenic survival: HT-1080, cell death inducer plus radiation; for CDI with 4 Gy IR / CDI with 2 Gy IR: HT-1080 cells, CDI<1 synergy; for CDI with 2 Gy IR: inducer concentration (300 nM IKE, 20 nM RSL3, 1 nM staurosporine, 2 nM doxorubicin, 300 nM rapamycin, 100 ng/mL TNF + 20 μM Z-VAD-FMK + 300 nM birinapant). As for the experimental part: as §1
We tested their ability to prevent clonogenic growth, along with DMSO-treated controls.
The coefficient of drug interaction (CDI), used to compute interaction between two drugs, was used to quantify synergy between cell death inducers and radiation according to the formula CDI=AB/(A×B), where AB is the surviving fraction of the combination treatment, and A and B are the surviving fractions of the individual treatments.

Take `COC(=O)c1ccc([C@@H]2c3[nH]c4ccccc4c3C[C@@H](C(=O)OC)N2C(=O)CCl)cc1` [RSL3, Ras Synthetic Lethal 3]: the “C-11 BODIPY fluorescence” value in experiment [1] is “significantly increased C-11 BODIPY fluorescence”. In experiment [2], the “Number of γH2AX foci” value was “did not affect the number of observed γH2AX foci”; the “γH2AX foci formation, compound alone” value is listed as “did not result in γH2AX foci formation”; the “γH2AX foci in irradiated groups vs DMSO” value is recorded as “no differences were observed”. In the experiment with U87 cells, the “Highest observed coefficient of Drug Interaction (CDI) in combination with IR” value (“Highest observed coefficient” below) was 0.31. Further, in experiment [3], the “DNA single strand damage (percent tail DNA), compound alone” value is “not detect a significant increase” and the “DNA damage (percent tail DNA), combined with radiation” value (“DNA damage (percent tail DNA)” below) is “no significant enhancement of DNA damage”. In the experiment with HT-1080 cells, the “Highest observed coefficient” value stood at 0.09, the “Enhancement of radiation effect on clonogenic survival” value was “significantly enhanced the effects of radiation”, the “CDI with 4 Gy IR” value stood at 0.09 and the “CDI with 2 Gy IR” value amounted to 0.27.

In the case of `CCOC(=O)c1ccc(NC2CCCCC2)c(N)c1` [ferrostatin-1], in experiment [1], the “C-11 BODIPY fluorescence” value is “reversed”. In experiment [2], the “Number of γH2AX foci” value was “did not affect the number of observed γH2AX foci” and the “γH2AX foci in irradiated groups vs DMSO” value was “no differences were observed”. Further, the “DNA damage (percent tail DNA)” value in experiment [3] is “did not observe a significant protective effect”. For the same compound, in the experiment on HT-1080 cells (HT-1080, 2 or 4 Gy radiation, no ferroptosis inducer), the “Colony formation after radiation alone” value was “significantly rescued colony formation; also recorded: partially rescued cell death induced by radiation alone”. Also, in the experiment on HT-1080 cells (HT-1080, co-treatment with ferroptosis inhibitor), the “Synergy between IKE or RSL3 and radiation in colony formation” value is “suppress the synergy”. In the experiment with HT-1080 cells (HT-1080, co-treatment with ferrostatin-1), the “Synergy between sorafenib and radiation in colony formation” value was “partially suppressible”.

Consider `CC(C)Oc1ccc(C(=O)Cn2ccnc2)cc1-n1c(CN2CCN(C(=O)COc3ccc(Cl)cc3)CC2)nc2ccccc2c1=O` [IKE, imidazole ketone erastin], for which the “C-11 BODIPY fluorescence” value in experiment [1] is “significantly increased C-11 BODIPY fluorescence”. In addition, in experiment [2], the “Number of γH2AX foci” value is “did not affect the number of observed γH2AX foci”; the “γH2AX foci formation, compound alone” value is given as “did not result in γH2AX foci formation”; the “γH2AX foci in irradiated groups vs DMSO” value is listed as “no differences were observed”. Moreover, the “Highest observed coefficient” value in the experiment with U87 cells was 0.65. Further, in experiment [3], the “DNA single strand damage (percent tail DNA), compound alone” value was “not detect a significant increase” and the “DNA damage (percent tail DNA)” value was “no significant enhancement of DNA damage”. In the experiment on HT-1080 cells, the “Highest observed coefficient” value amounted to 0.17, the “Enhancement of radiation effect on clonogenic survival” value was “significantly enhanced the effects of radiation”, the “CDI with 4 Gy IR” value is on record as 0.17 and the “CDI with 2 Gy IR” value is reported as 0.35.
